What all share (assay type): functional, cell-based
For series [1], the target named is T1, Solute carrier family 22 member 3 (Homo sapiens, UniProt O75751).
T1 sequence (O75751 whole entry): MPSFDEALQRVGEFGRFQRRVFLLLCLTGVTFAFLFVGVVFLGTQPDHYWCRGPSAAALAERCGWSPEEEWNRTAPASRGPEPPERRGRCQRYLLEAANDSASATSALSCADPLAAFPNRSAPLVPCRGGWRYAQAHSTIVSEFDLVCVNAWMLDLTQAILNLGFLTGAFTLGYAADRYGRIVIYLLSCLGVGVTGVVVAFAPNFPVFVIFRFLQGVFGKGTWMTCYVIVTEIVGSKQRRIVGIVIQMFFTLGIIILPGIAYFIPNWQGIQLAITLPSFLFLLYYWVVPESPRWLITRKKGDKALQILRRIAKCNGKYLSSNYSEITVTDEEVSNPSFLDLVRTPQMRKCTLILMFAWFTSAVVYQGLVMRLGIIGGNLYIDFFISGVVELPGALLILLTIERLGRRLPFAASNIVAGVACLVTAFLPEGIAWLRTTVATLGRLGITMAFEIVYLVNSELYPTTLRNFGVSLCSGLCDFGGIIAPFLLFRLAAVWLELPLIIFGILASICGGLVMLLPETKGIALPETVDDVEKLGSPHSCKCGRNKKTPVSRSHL
The series is described as follows: (§1) TP_TRANSPORTER: uptake in OCT3-expressing HEK293 cells.

Series [2] has as its target T1, Solute carrier family 22 member 3. Kind of series: TP_TRANSPORTER: inhibition of MPP+ uptake in OCT3-expressing HEK293 cells.
Substrate in series [3]: NC[C@H](O)c1ccc(O)c(O)c1
The description is as §1.

This is an account of results in ChEMBL document CHEMBL2074295, “Molecular identification of the corticosterone-sensitive extraneuronal catecholamine transporter” (Nat Neurosci, 1998).

Turning to `C[n+]1ccc(-c2ccccc2)cc1`, in series [1], the Activity result is “substrate [+]”.

On to `Nc1ncnc2c1ncn2CCOCP(=O)(O)O` [ADEFOVIR], for which, in series [1], the Activity entry was “substrate [+]”.

Turning to `COc1cc2c(c(OC)c1OC)-c1ccc(OC)c(=O)cc1[C@@H](NC(C)=O)CC2` [COLCHICINE], the affinity in series [2], expressed as Ki, was 120 nM. On the same count and under the same terms, to `CC(C)N1/C(=C\c2cc[n+](C(C)C)c3ccccc23)C=Cc2ccccc21` [DISPROCYNIUM24] belongs 15 nM. Regarding `NCCc1c[nH]c2ccc(O)cc12` [SEROTONIN], the Activity result in series [1] was “substrate [+]”. Regarding `NCCc1ccc(O)cc1` [TYRAMINE], the Activity result in series [1] is “substrate [+]”.

B1: Solute carrier family 22 member 3 (Homo sapiens) (protein)
chain: T1 sequence (O75751 whole entry)
Turning to B1, the Km in series [3] stood at 510 µM.

The Ki is the dissociation constant of the complex between target and ligand, obtained from inhibition or displacement. A high value points to weaker binding. By Km is commonly meant the substrate concentration at which the rate is half of its maximum.
